Laboratory results reported in PMC8524670 (Pharmacology Research & Perspectives, 2021).

Columns and labels:
CYP2C9 [1] = molecular target: CYP2C9 (Homo sapiens, UniProt P11712); test: Time-dependent CYP inhibition in HLMs; conditions: 10 µM zanubrutinib, 30 min pre-incubation with HLMs and NADPH
human BCRP = molecular target: T1, human BCRP (Homo sapiens, UniProt Q9UNQ0); test: BCRP transportation in inside-out vesicles; assay type: in vitro ADME; conditions: uptake ratio ≥2-fold indicates substrate
T1 sequence (Q9UNQ0 1-655): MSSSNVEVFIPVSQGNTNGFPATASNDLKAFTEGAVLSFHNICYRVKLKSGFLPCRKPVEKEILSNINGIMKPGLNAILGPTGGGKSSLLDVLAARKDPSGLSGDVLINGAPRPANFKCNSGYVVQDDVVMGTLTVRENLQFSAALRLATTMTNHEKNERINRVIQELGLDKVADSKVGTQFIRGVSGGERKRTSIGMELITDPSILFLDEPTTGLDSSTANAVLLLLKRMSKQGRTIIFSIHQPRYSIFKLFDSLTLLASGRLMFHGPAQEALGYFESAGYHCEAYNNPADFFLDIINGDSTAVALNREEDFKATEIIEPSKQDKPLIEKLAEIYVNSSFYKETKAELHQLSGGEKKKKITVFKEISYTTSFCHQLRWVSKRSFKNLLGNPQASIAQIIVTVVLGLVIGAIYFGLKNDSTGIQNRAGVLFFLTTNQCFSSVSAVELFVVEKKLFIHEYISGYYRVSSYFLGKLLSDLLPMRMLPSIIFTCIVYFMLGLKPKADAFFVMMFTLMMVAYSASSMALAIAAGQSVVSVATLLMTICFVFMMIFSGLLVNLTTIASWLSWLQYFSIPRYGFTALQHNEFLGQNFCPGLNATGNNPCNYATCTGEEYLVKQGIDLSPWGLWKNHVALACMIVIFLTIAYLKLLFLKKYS

CYP2B6 = molecular target: T2, CYP2B6 (Homo sapiens, UniProt P20813); test: Time-dependent CYP inhibition in HLMs; conditions: 10 µM zanubrutinib, 30 min pre-incubation with HLMs and NADPH
T2 sequence (P20813 1-491): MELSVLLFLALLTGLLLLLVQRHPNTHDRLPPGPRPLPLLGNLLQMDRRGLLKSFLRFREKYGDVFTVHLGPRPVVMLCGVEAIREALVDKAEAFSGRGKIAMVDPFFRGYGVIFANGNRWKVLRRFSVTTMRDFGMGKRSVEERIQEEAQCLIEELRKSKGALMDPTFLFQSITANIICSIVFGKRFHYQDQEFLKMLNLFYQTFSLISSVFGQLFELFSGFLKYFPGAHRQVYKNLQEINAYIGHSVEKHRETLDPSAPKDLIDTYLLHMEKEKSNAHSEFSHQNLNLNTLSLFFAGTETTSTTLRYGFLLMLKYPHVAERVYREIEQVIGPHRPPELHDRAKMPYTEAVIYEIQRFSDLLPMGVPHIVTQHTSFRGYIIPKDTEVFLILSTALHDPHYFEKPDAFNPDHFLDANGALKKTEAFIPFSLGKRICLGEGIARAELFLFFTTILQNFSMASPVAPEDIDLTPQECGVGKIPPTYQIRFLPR

CYP2C9 [2] = conditions: coadministration of zanubrutinib; cited from earlier work

Chain of CYP2C9 (Homo sapiens, UniProt P11712) (P11712 whole entry): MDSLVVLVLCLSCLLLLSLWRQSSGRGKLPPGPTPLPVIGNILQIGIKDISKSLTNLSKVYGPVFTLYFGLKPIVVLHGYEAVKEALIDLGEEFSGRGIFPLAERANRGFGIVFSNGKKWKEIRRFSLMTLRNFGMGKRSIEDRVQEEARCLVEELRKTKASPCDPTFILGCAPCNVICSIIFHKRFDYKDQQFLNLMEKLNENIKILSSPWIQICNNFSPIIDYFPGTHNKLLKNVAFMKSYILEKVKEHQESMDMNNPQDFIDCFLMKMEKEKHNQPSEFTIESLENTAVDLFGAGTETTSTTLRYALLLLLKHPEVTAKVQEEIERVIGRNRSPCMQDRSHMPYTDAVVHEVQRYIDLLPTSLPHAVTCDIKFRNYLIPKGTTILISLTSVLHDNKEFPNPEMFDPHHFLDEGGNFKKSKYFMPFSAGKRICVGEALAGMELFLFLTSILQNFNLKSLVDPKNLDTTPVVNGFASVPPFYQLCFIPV

C=CC(=O)N1CCC([C@@H]2CCNc3c(C(N)=O)c(-c4ccc(Oc5ccccc5)cc4)nn32)CC1 [zanubrutinib]
Percent loss of enzymatic activity (CYP2C9 [1]): 5.86%
BCRP substrate status (human BCRP): unlikely to be a substrate
Percent loss of enzymatic activity (CYP2B6): 15.5%
Effect on the clinical PK of warfarin (CYP2C9 [2]): no remarkable effect
